Test results taken from US5420142A, “Certain 3-formyl-1, 4-dihydropyridines and their pharmaceutical composition and use” (Bayer Aktiengesellschaft, priority 1991, dated 1995).

Test system: isolated guinea pig heart auricles
Experiment: Substance effects on the contraction amplitude of isolated guinea pig heart auricles
Conditions: Cavia porcellus, active compound concentration 10^-4 g/l, read-out: Contractility (% control)
Excerpt: The cardiac and vascular effects were found on isolated perfused guinea pig hearts. To this end, the hearts of guinea pigs of 250 to 350 g weight are used. The animals are killed by a blow to the head, the thorax is opened, and a metal cannula is tied into the exposed aorta. The heart is separated out of the thorax with the lungs and connected to the perfusion apparatus via an aortic cannula with continuous perfusion. The lungs are separated at the roots of the lung. The perfusion medium used is a Krebs-Henseleit solution (1) (118.5 mmol/l of NaCl, 4.75 mmol/l of KCl, 1.19 mmol/1 of KH2 PO4, 1.19 mmol/l of MgSO4, 25 mmol/l of NaHCO3, 0.013 mmol/l of Na2 EDTA), the CaCl2 content of which is 1.2 mmol/l. 10 mmol/l of glucose are added as an energy-producing substrate. The solution is filtered free from particles before perfusion. The solution is aerated with carbogen (95% O2, 5% CO2) to maintain the pH 7.4. The hearts are perfused with a constant flow (10 ml/min) at 32° C. by means of a peristaltic pump.
For the measurement of cardiac function, a liquid-filled latex balloon which is connected to a pressure transducer via a liquid column is inserted into the left ventricle through the left auricle, and the isovolumetric contractions are recorded on a rapid recorder (Opie, L., J. Physiol., 180 (1965), 529-541). The perfusion pressure is recorded by means of a pressure transducer which is connected to the perfusion system upstream of the heart. Under these conditions, a reduction in the perfusion pressure indicates a coronary dilation, and an increase or decrease in the left-ventricular contraction amplitude indicates […] in the heart contractility. The compounds according to the invention are perfused into the perfusion system in suitable dilutions Just upstream of the isolated heart.
Substance effects on the contraction amplitude of isolated guinea pig heart auricles at an active compound concentration of 10^-4 g/l.

CCOC(=O)C1=C(C)NC(C)=C(C=O)C1c1cccc2ncc(-c3ccccc3)cc12 (stereo not drawn) [Example 1, Ethyl 1,4-dihydro-2,6-dimethyl-3-formyl-4-(3-phenylquinolin-5-yl)-pyridine-5-carboxylate]
activation at 0.1 µg/mL: 32%

CC1=C(C=O)C(c2cccc3ncc(-c4ccccc4)cc23)C(C(=O)OC(C)C)=C(C)N1 (stereo not drawn) [Example 3]
activation at 0.1 µg/mL: 31%

COC(=O)C1=C(C)NC(C)=C(C=O)C1c1cccc2ncc(-c3ccccc3)cc12 (stereo not drawn) [Example 4]
activation at 0.1 µg/mL: 41%
